Reference: patent publication US7595398B2, “N-(5-membered aromatic ring)-amido anti-viral compounds” (SmithKline Beecham Corporation, priority 2005, dated 2009)

Each molecule was assayed on HCV replicon I389luc-ubi-neo/NS3-3′/ET in ET (Huh-lucubineo-ET) cells; screening for HCV RNA dependent RNA polymerase (assay: Replicon Assay (luciferase, ET cell line Huh-lucubineo-ET)). Settings: Hepatitis C virus; inhibition of replication relative to no compound control; test concentration of 10 μM according to the fitted equation; luciferase 48-72 hours.
Assay type: cell-based
Method: A cell line, ET (Huh-lucubineo-ET) was used for screening of compounds of the present invention for HCV RNA dependent RNA polymerase. The ET cell line was stably transfected with RNA transcripts harboring a I389luc-ubi-neo/NS3-3′/ET; replicon with firefly luciferase-ubiquitin-neomycin phosphotransferase fusion protein and EMCV-IRES driven NS3-5B polyprotein containing the cell culture adaptive mutations (E1202G; T12801; K1846T) (Krieger at al, 2001 and unpublished). The ET cells were grown in DMEM, supplemented with 10% fetal calf serum, 2 mM Glutamine, Penicillin (100 IU/mL)/Streptomycin (100 μg/mL), 1× nonessential amino acids, and 250 μg/mL G418 (“Geneticin”). They were all available through Life Technologies (Bethesda, Md.). The cells were plated at 0.5-1.0×10^4 cells/well in the 96 well plates and incubated for 24 hrs before adding nucleoside analogs. […] Luciferase activity were measured 48-72 hours later by adding a lysis buffer and the substrate (Catalog number Glo-lysis buffer E2661 and Bright-Glo luciferase system E2620 Promega, Madison, Wis.). Cells should not be too confluent during the assay. Percent inhibition of replication was plotted relative to no compound control. Under the same condition, cytotoxicity of the compounds was determined using cell proliferation reagent, WST-1(Roche, Germany). The compounds showing antiviral activities, but no significant cytotoxicities were chosen to determine IC50 and TC50. For these determinations, 10 concentrations of each compound were used. Concentrations for test compounds typically span a range of 500 fold. IC50 and TC50 values were calculated by fitting % inhibition at each concentration (I) to the following equation: % inhibition=100%/[1+10^(log IC50−log (I))*b] where b is Hill's coefficient.

Structure (SMILES) | inhibition at 10 µM
CC(=O)Nc1cccc(-c2csc(NC(=O)[C@@H]3CCCN3C(=O)OCc3ccccc3)n2)c1 [Compound 5015, 2-[4-(3-Acetylamino-phenyl)-thiazol-2-ylcarbamoyl]-pyrrolidine-1-carboxylic acid benzyl ester] | 99.4%
CC(C)c1ccc(-c2csc(NC(=O)[C@@H]3CCCN3C(=O)OCc3ccccc3)n2)cc1 [Compound 5069, 2-[4-(4-Isopropyl-phenyl)-thiazol-2-ylcarbamoyl]-pyrrolidine-1-carboxylic acid benzyl ester] | 3.15%
O=C(Nc1ccc(-c2csc(NC(=O)C3CCCN3C(=O)OCc3ccccc3)n2)cc1)C1CCCC1 (stereo not drawn) [Compound 5006, 2-{4-[4-(Cyclopentanecarbonyl-amino)-phenyl]-thiazol-2-ylcarbamoyl}-pyrrolidine-1-carboxylic acid benzyl ester] | 99.9%
Cc1ccc(S(=O)(=O)Cc2csc(NC(=O)[C@@H]3CCCN3C(=O)OCc3ccccc3)n2)cc1 [Compound 5033, 2-[4-(Toluene-4-sulfonylmethyl)-thiazol-2-ylcarbamoyl]-pyrrolidine-1-carboxylic acid benzyl ester] | 2.51%
O=C(Nc1nc(-c2ccco2)cs1)[C@@H]1CCCN1C(=O)OCc1ccccc1 [Compound 5347, 2-(4-Furan-2-yl-thiazol-2-ylcarbamoyl)-pyrrolidine-1-carboxylic acid benzyl ester] | 94.7%
O=C(NC1CC1)c1ccc(-c2csc(NC(=O)[C@@H]3CCN3C(=O)OCc3ccccc3)n2)cc1 [Compound 5301, 2-[4-(4-Cyclopropylcarbamoyl-phenyl)-thiazol-2-ylcarbamoyl]-azetidine-1-carboxylic acid benzyl ester] | 100%
O=C(Nc1nc(-c2cc3ccccc3oc2=O)cs1)[C@@H]1CCCN1C(=O)OCc1ccccc1 [Compound 5007, 2-[4-(2-Oxo-2H-chromen-3-yl)-thiazol-2-ylcarbamoyl]-pyrrolidine-1-carboxylic acid benzyl ester] | 100%
O=C(NC1CC1)c1ccc(-c2csc(NC(=O)[C@@H]3CCCN3C(=O)OCc3ccccc3)n2)cc1 [Compound 5096, 2-[4-(4-Cyclopropylcarbamoyl-phenyl)-thiazol-2-ylcarbamoyl]-pyrrolidine-1-carboxylic acid benzyl ester] | 100%
O=C(Nc1ncc(Cc2cccc([N+](=O)[O-])c2)s1)[C@@H]1CCCN1C(=O)OCc1ccccc1 [Compound 5047, 2-[5-(3-Nitrobenzyl)-thiazol-2-ylcarbamoyl]-pyrrolidine-1-carboxylic acid benzyl ester] | 37.7%
O=C(Nc1ccc(-c2csc(NC(=O)C3CCCN3C(=O)OCc3ccccc3)n2)cc1)c1ccccc1 (stereo not drawn) [Compound 5037, 2-[4-(4-Benzoylamino-phenyl)-thiazol-2-ylcarbamoyl]-pyrrolidine-1-carboxylic acid benzyl ester] | 100%
O=C(Nc1ncc(Cc2ccc(Cl)cc2Cl)s1)[C@@H]1CCCN1C(=O)OCc1ccccc1 [Compound 5031, 2-[5-(2,4-Dichloro-benzyl)-thiazol-2-ylcarbamoyl]-pyrrolidine-1-carboxylic acid benzyl ester] | 2.85%
O=C(Nc1ccc(-c2csc(NC(=O)C3CCCN3C(=O)OCc3ccccc3)n2)cc1)C1CC1 (stereo not drawn) [Compound 5018, 2-{4-[4-(Cyclopropanecarbonyl-amino)-phenyl]-thiazol-2-ylcarbamoyl}-pyrrolidine-1-carboxylic acid benzyl ester] | 100%
CC(C)Cc1ccc(-c2csc(NC(=O)[C@@H]3CCCN3C(=O)OCc3ccccc3)n2)cc1 [Compound 5102, 2-[4-(4-Isobutyl-phenyl)-thiazol-2-ylcarbamoyl]-pyrrolidine-1-carboxylic acid benzyl ester] | 9.8%
O=C(O)c1ccc(-c2csc(NC(=O)[C@@H]3CCCN3C(=O)OCc3ccccc3)n2)cc1 [Compound 5106, 2-[4-(4-Carboxy-phenyl)-thiazol-2-ylcarbamoyl]-pyrrolidine-1-carboxylic acid benzyl ester] | 46.3%
O=C(Nc1nc(-c2ccc(S(=O)(=O)NC3CC3)cc2)cs1)C1CCCN1C(=O)OCc1ccccc1 (stereo not drawn) [Compound 5378, 2-[4-(4-Cyclopropylsulfamoyl-phenyl)-thiazol-2-ylcarbamoyl]-pyrrolidine-1-carboxylic acid benzyl ester] | 98.3%
O=C(Nc1ccc(-c2csc(NC(=O)[C@@H]3CCC(=O)N3C(=O)OCc3ccccc3)n2)cc1)C1CC1 [Compound 5366, 2-{4-[4-(Cyclopropanecarbonyl-amino)-phenyl]-thiazol-2-ylcarbamoyl}-5-oxo-pyrrolidine-1-carboxylic acid benzyl ester] | 99.3%
Cc1ccc(C)c(-c2cnc(NC(=O)[C@@H]3CCCN3C(=O)OCc3ccccc3)s2)c1 [Compound 5042, 2-[5-(2,5-Dimethyl-phenyl)-thiazol-2-ylcarbamoyl]-pyrrolidine-1-carboxylic acid benzyl ester] | 90.3%
O=C(NC1CC1)c1ccc(-c2csc(NC(=O)C3CCCC3C(=O)NCc3ccccc3)n2)cc1 (racemic) [Compound 5382, Cyclopentane-1,2-dicarboxylic acid 1-benzylamide 2-{[4-(4-cyclopropylcarbamoyl-phenyl)-thiazol-2-yl]-amide}] | 100%
Nc1cccc(-c2csc(NC(=O)C3CCCN3C(=O)OCc3ccccc3)n2)c1 (stereo not drawn) [Compound 5001, 2-[4-(3-Amino-phenyl)-thiazol-2-ylcarbamoyl]-pyrrolidine-1-carboxylic acid benzyl ester] | 99.6%
CN(C(=O)c1ccc(-c2csc(NC(=O)[C@@H]3CCCN3C(=O)OCc3ccccc3)n2)cc1)C1CCCCC1 [Compound 5332, 2-{4-[4-(Cyclohexyl-methyl-carbamoyl)-phenyl]-thiazol-2-ylcarbamoyl}-pyrrolidine-1-carboxylic acid benzyl ester] | 99.7%
O=C(NC1CCCC1)c1ccc(-c2cnc(NC(=O)[C@@H]3CCCN3C(=O)OCc3ccccc3)s2)cc1 [Compound 5368, 2-[5-(4-Cyclopentylcarbamoyl-phenyl)-thiazol-2-ylcarbamoyl]-pyrrolidine-1-carboxylic acid benzyl ester] | 50.8%
O=C(Nc1nc(-c2ccc(OCc3ccc(Br)cc3)cc2)cs1)[C@@H]1CCCN1C(=O)OCc1ccccc1 [Compound 5066, 2-{4-[4-(4-Bromo-benzyloxy)-phenyl]-thiazol-2-ylcarbamoyl}-pyrrolidine-1-carboxylic acid benzyl ester] | 5.72%
O=C(CCCCC1SCC2NC(=O)NC21)Nc1ccc(-c2csc(NC(=O)[C@@H]3CCCN3C(=O)OCc3ccccc3)n2)cc1 (stereo partly drawn) [Compound 5093, 2-(4-{4-[5-(2-Oxo-hexahydro-thieno[3,4-d]imidazol-4-yl)-pentanoylamino]-phenyl}-thiazol-2-ylcarbamoyl)-pyrrolidine-1-carboxylic acid benzyl ester] | 100%
CC(C)(C)NC(=O)c1ccc(-c2csc(NC(=O)[C@@H]3CCCN3C(=O)OCc3ccccc3)n2)cc1 [Compound 5326, 2-[4-(4-tert-Butylcarbamoyl-phenyl)-thiazol-2-ylcarbamoyl]-pyrrolidine-1-carboxylic acid benzyl ester] | 100%
O=C(Nc1nc(CSc2nc3ccccc3[nH]2)cs1)[C@@H]1CCCN1C(=O)OCc1ccccc1 [Compound 5064, 2-[4-(1H-Benzoimidazol-2-ylsulfanylmethyl)-thiazol-2-ylcarbamoyl]-pyrrolidine-1-carboxylic acid benzyl ester] | 18.1%
CC(=O)c1ccc(-c2csc(NC(=O)[C@@H]3CCCN3C(=O)OCc3ccccc3)n2)cc1 [Compound 5309, 2-[4-(4-Acetyl-phenyl)-thiazol-2-ylcarbamoyl]-pyrrolidine-1-carboxylic acid benzyl ester] | 99.5%
O=C(Cc1csc(NC(=O)[C@@H]2CCCN2C(=O)OCc2ccccc2)n1)NCCc1ccccc1 [Compound 5068, 2-[4-(Phenethylcarbamoyl-methyl)-thiazol-2-ylcarbamoyl]-pyrrolidine-1-carboxylic acid benzyl ester] | 13.5%
CC(=O)c1ccc(Cc2cnc(NC(=O)[C@@H]3CCCN3C(=O)OCc3ccccc3)s2)cc1 [Compound 5053, 2-[5-(4-Acetyl-benzyl)-thiazol-2-ylcarbamoyl]-pyrrolidine-1-carboxylic acid benzyl ester] | 4.55%
O=C(Nc1nc2cc3ccccc3cc2s1)[C@@H]1CCCN1C(=O)OCc1ccccc1 [Compound 5035, 2-(Naphtho[2,3-d]thiazol-2-ylcarbamoyl)-pyrrolidine-1-carboxylic acid benzyl ester] | 100%
CCCc1ccc(-c2csc(NC(=O)[C@@H]3CCCN3C(=O)OCc3ccccc3)n2)cc1 [Compound 5099, 2-[4-(4-Propyl-phenyl)-thiazol-2-ylcarbamoyl]-pyrrolidine-1-carboxylic acid benzyl ester] | 35.7%
